Source: PubChem BioAssay AID1996
In brackets after ≈: the same amount, converted by molar mass.

settings: buffer; pH 7.4; 200.0 µM

| SMILES | solubility kinetic |
| --- | --- |
| COc1ccc2ccc(OCC(=O)Nc3cc(C)on3)cc2c1 | 12.4 µg/mL (≈ 39.7 µM) |
| Cc1ccsc1C(=O)NCCc1nnc2ccccn12 | > 43 µg/mL |
| O=C(COC(=O)c1ccccc1Br)NCC1CCCO1 (centres undefined) | > 51.3 µg/mL |
| Cn1c(O)c(C=NCCN2CCOCC2)c(=O)n(C)c1=S | > 46.9 µg/mL |
| Cc1ccc(NC(=O)CN(C)C(=O)CSc2nccn2C)cc1 | > 49.9 µg/mL |
| CC(=O)Nc1cccc(-c2cc(-c3c(Cl)cccc3Cl)no2)c1 | 3.7 µg/mL (≈ 10.7 µM) |
| O=C(COC(=O)c1cnccn1)Nc1cccc(F)c1 | > 41.3 µg/mL |
| CCCN1CCC(NC(=O)Cc2ccccc2C)CC1 | 33.4 µg/mL (≈ 122 µM) |
| Cc1ccc(S(=O)(=O)N2CCCCC2)cc1C(=O)OCC(=O)N1c2ccccc2NC(=O)C1(C)C | 3.2 µg/mL (≈ 6.41 µM) |
| Cc1ccccc1C(=O)Nc1ccc2nc3n(c(=O)c2c1)CCCC3 | 37.5 µg/mL (≈ 112 µM) |
| CCOc1cccc(Nc2ccc([N+](=O)[O-])cn2)c1 | 2.4 µg/mL (≈ 9.26 µM) |
| Cc1cccc2sc(NC(=O)CCn3cccc3)nc12 | 5.7 µg/mL (≈ 20 µM) |
| Cc1ccc(S(N)(=O)=O)cc1NC(=O)/C=C/c1ccc2c(c1)OCO2 | 2.1 µg/mL (≈ 5.83 µM) |
| CS(=O)(=O)c1ccc(C(=O)NCc2ccc(F)cc2)cc1 | 38.5 µg/mL (≈ 125 µM) |
| N#C/C(=C\c1ccc(O)c(Br)c1)C(=O)N1CCCCC1 | > 50.3 µg/mL |
| CC1=N/C(=C/c2ccco2)C(=O)O1 | > 26.6 µg/mL |
| Nc1nc(NCc2ccccc2)nc(NCCO)c1[N+](=O)[O-] | 43.4 µg/mL (≈ 143 µM) |
| O=C(CCNC(=O)c1ccco1)NCCc1c[nH]c2ccccc12 | 33.1 µg/mL (≈ 102 µM) |
| C=CCn1c(O)c(C(CC)=Nc2ccc(C(=O)O)cc2)c(=O)[nH]c1=O | > 51.5 µg/mL |
| CC(C)c1ccc(NC(=O)C2CC2c2ccccc2)cc1 (centres undefined) | 12 µg/mL (≈ 43 µM) |
| Cc1cc(N2CCN(C(=O)c3ccco3)CC2)c2ccccc2n1 | 44.7 µg/mL (≈ 139 µM) |
| CCC(Sc1nc(-c2ccccc2)c(-c2ccccc2)[nH]1)C(=O)O (centres undefined) | 44.8 µg/mL (≈ 132 µM) |
| COc1ccc(CSc2nc(C)[nH]c2[N+](=O)[O-])cc1[N+](=O)[O-] | 3.2 µg/mL (≈ 9.87 µM) |
| CC(OC(=O)c1cc(S(=O)(=O)N2CCOCC2)ccc1F)C(=O)NCC1CCCCC1 (centres undefined) | > 68.5 µg/mL |

| SMILES | solubility kinetic |
| --- | --- |
| Cc1ccc(NC(=O)CCC(=O)c2cccs2)nc1 | 34.6 µg/mL (≈ 126 µM) |
| Cc1ccc(SCCC(=O)Nc2cc(C)on2)cc1 | 1.3 µg/mL (≈ 4.7 µM) |
| Nc1ccc(-c2cn3cccnc3n2)cc1 | > 31.5 µg/mL |
| Cc1ccc(C)c(CN2CCSCC2)c1 | 2.1 µg/mL (≈ 9.49 µM) |
| CN1c2ccccc2Sc2cc(N)ccc21 | 25.6 µg/mL (≈ 112 µM) |
| CN(C)S(=O)(=O)N1CCN(CC(=O)Nc2ccc(F)cc2)CC1 | > 51.7 µg/mL |
| COC(=O)Cc1c(O)ccn(CCc2ccccc2)c1=O | > 43.1 µg/mL |
| Nc1ccccc1SCc1ccccc1 | 4 µg/mL (≈ 18.6 µM) |
| O=C(/C=C/c1ccc([N+](=O)[O-])cc1)N1CCN(Cc2ccccc2)CC1 | 1.7 µg/mL (≈ 4.84 µM) |
| CC(=O)Nc1ccc(S(=O)(=O)Nc2nc(C)nc3sc(C)c(C)c23)cc1 | > 58.6 µg/mL |
| NC(=O)C1(c2ccccc2)CCC(=O)N1c1ccccc1 (centres undefined) | > 42 µg/mL |
| COc1ccccc1CN(C)C(=O)c1cnc(C)cn1 | > 40.7 µg/mL |
| C1CCC2S[C@H]3CCCCC3NC2C1 (some centres undefined) | 25.3 µg/mL (≈ 120 µM) |
| COC(=O)[C@H](C)NC(=O)NCc1ccc(S(N)(=O)=O)cc1 | > 47.3 µg/mL |
| COCc1cc(OC)nc(-c2csc(C)n2)n1 | 32.5 µg/mL (≈ 129 µM) |
| S=c1[nH]ccn1-c1ccc(Cl)cc1 | 29.2 µg/mL (≈ 139 µM) |
| Cc1ccc(S(=O)(=O)N2CCN(c3ccccc3)CC2)c(C)c1 | 3 µg/mL (≈ 9.08 µM) |
| CC(C)OCc1ccc(C(=O)N2CCN(CC(=O)N3CCCC3)CC2)cc1 | > 56 µg/mL |
| OCC(O)CN1CCN(c2ccccc2)CC1 (centres undefined) | > 35.4 µg/mL |
| CC1(C)OC2C(O1)[C@@H](CO)O[C@H]2n1cnc2c(N)ncnc21 (some centres undefined) | > 46.1 µg/mL |
| CC(C#N)Sc1ccc(S(=O)(=O)N2CCCCC2)cn1 (centres undefined) | 9.4 µg/mL (≈ 30.2 µM) |
| CCCn1c(SCC(=O)N2CCc3ccccc3C2)nc(O)cc1=O | > 53.9 µg/mL |
| COc1ccc(OC)c2c1sc(=NC(=O)C1CCCCC1)n2C | < 0.4 µg/mL |
| CC1CC(C)CN(C(=O)COC(=O)c2ccc(Cl)nc2)C1 (centres undefined) | > 46.6 µg/mL |

| SMILES | solubility kinetic |
| --- | --- |
| Cc1nc(C(=O)NCC(=O)c2ccccc2)c(C(F)(F)F)o1 | > 46.8 µg/mL |
| O=C(NCc1nc(-c2ccc(C(F)(F)F)cc2)no1)c1cccs1 | 7.1 µg/mL (≈ 20.1 µM) |
| O=C(c1ccc(F)cc1)c1ccc(OCC(=O)N2CCOCC2)cc1 | > 51.5 µg/mL |
| CC(=O)c1ccc(OC(C)C(=O)NC2CCCCC2C)cc1 (centres undefined) | > 45.5 µg/mL |
| COc1ccc(C(CC(=O)NCc2ccccc2)C(C)C)cc1 (centres undefined) | 10.1 µg/mL (≈ 32.4 µM) |
| CC(CC(=O)NCc1ccc(F)cc1)c1ccccc1 (centres undefined) | > 40.7 µg/mL |
| CN(C(=O)CSc1ncn[nH]1)C1(C#N)CCCCC1 | > 41.9 µg/mL |
| C/C(=N/OC(=O)CC(C)C)c1cc(-c2ccc(Cl)cc2)no1 | < 0.3 µg/mL |
| COc1ccc(C(=O)N2CCN(Cc3nc(CC4CC4)no3)CC2)cc1 | > 53.5 µg/mL |
| CCOC(=O)C1=C(C)N(C)C(=S)N(C)C1c1ccc(OC)cc1 (centres undefined) | 19.8 µg/mL (≈ 59.2 µM) |
| S=c1[nH]ccn1CCc1ccccc1 | 22.7 µg/mL (≈ 111 µM) |
| COc1ccc(NC(=O)CCc2nc3ccccc3c(=O)[nH]2)cc1S(=O)(=O)N1CCCCC1 | 9.6 µg/mL (≈ 20.4 µM) |
| COc1cc(NC(=O)CCN2CCOCC2)cc(OC)c1 | > 44.2 µg/mL |
| Cc1ccc(N(Cc2ccccc2)C(=O)c2cccc(F)c2)cc1 | 11.1 µg/mL (≈ 34.8 µM) |
| O=C(NCC(c1ccco1)N1CCOCC1)c1ccc([N+](=O)[O-])cc1 (centres undefined) | > 51.8 µg/mL |
| Cc1cc(C)c2c(N)c(C(=O)Nc3ccc([N+](=O)[O-])cc3)sc2n1 | < 0.2 µg/mL |
| C=CCNC(=O)COC(=O)c1ccc(Cl)c(S(N)(=O)=O)c1 | > 49.9 µg/mL |
| Cc1cc(C)nc(N(C#N)Cc2ccc(Cl)cc2)n1 | 21.7 µg/mL (≈ 79.6 µM) |
| CC(NC(=O)C1c2ccccc2Oc2ccccc21)C1CCCO1 (centres undefined) | 37.8 µg/mL (≈ 117 µM) |
| Cc1ccccc1Nc1ncnc2c1cnn2C | > 35.9 µg/mL |
| Cc1ccc(S(=O)(=O)Nc2ccc(Cl)cn2)cc1 | 28.3 µg/mL (≈ 100 µM) |
| O=[N+]([O-])c1cnc(Nc2ccc(Cl)cn2)c([N+](=O)[O-])c1 | 1.8 µg/mL (≈ 6.09 µM) |
| Br.Fc1ccccc1CNCC1CCCO1 (centres undefined) | 43.1 µg/mL |
| N#Cc1ccc(C(=O)CN2CCN(c3ccccc3)CC2)cc1 | 34 µg/mL (≈ 111 µM) |

| SMILES | solubility kinetic |
| --- | --- |
| COc1ccc(NC(=O)NC(=O)c2ccccc2)cc1 | 1.3 µg/mL (≈ 4.81 µM) |
| COc1cc2nc(NC(=O)c3ccc(Cl)cc3)sc(=O)c2cc1OC | 3.7 µg/mL (≈ 9.82 µM) |
| Cc1[nH]c2ccccc2c1C(=O)CSC(=S)N1CCN(C)CC1 | 2.4 µg/mL (≈ 6.91 µM) |
| Cc1cc(C)c(S(=O)(=O)Nc2cc(C)on2)c(C)c1 | 37.2 µg/mL (≈ 133 µM) |
| Cc1ccc(C)c(N2CCN(c3ncccc3[N+](=O)[O-])CC2)c1 | 1.1 µg/mL (≈ 3.52 µM) |
| COc1ccc(NC(=O)c2ccc(F)c(F)c2)c2ccccc12 | < 0.7 µg/mL |
| Cc1cccc(C)c1NC(=O)NC1CCc2ccccc21 (centres undefined) | 1 µg/mL (≈ 3.57 µM) |
| CCOc1ccccc1C(=O)N(C)CC(=O)Nc1ccc(OC)cc1 | > 51.4 µg/mL |
| O=C(CN(c1ccccc1Cl)S(=O)(=O)c1ccccc1)NCc1ccccc1 | 18.7 µg/mL (≈ 45.1 µM) |
| COc1ccc(CNC(=O)CC23CC4CC(CC(C4)C2)C3)cc1 | 1.6 µg/mL (≈ 5.1 µM) |
| CCOc1ccc(-c2nc(CCl)cs2)cc1.Cl | 8.5 µg/mL |
| Cc1ccc(SCC(=O)c2c(C)nc3cc(C)ccn23)cc1 | 0.7 µg/mL (≈ 2.25 µM) |
| Cc1ccc(NC(=O)C2CCCN(c3cnccn3)C2)c(C)c1 (centres undefined) | > 46.6 µg/mL |
| Cc1ccc(NC(=O)CCCNC(=O)c2ccc(Cl)cc2)c(O)c1 | 13.1 µg/mL (≈ 37.8 µM) |
| COC(=O)CC1C(=O)NCCN1C(=O)c1ccc(Cl)cc1 (centres undefined) | > 46.6 µg/mL |
| CCN(Cc1cc2cc(C)ccc2[nH]c1=O)C(=O)c1cccc([N+](=O)[O-])c1 | 11.5 µg/mL (≈ 31.5 µM) |
| Cc1cc(=O)oc2cc(OCCSCCN3CCCC3)ccc12 | > 50 µg/mL |
| Cc1ccc(NC(=O)CCOc2ccccc2C)cc1F | 2.5 µg/mL (≈ 8.7 µM) |
| CCOC(=O)C1CCCN(CC(=O)Nc2nccs2)C1 (centres undefined) | > 44.6 µg/mL |
| O=C(COC(=O)CCC(=O)c1ccc(F)cc1)NCc1ccccc1Cl | > 56.7 µg/mL |
| Cc1cccc(C(=O)N/C(=C\c2ccco2)C(=O)N2CCCCCC2)c1 | 50.3 µg/mL (≈ 143 µM) |
| N#C/C(=C\c1c(F)cccc1Cl)S(=O)(=O)c1ccccn1 | 36.2 µg/mL (≈ 112 µM) |
| Cc1ccc(C(CC(=O)O)NC(=O)CCNC(=O)c2ccco2)cc1 (centres undefined) | > 51.7 µg/mL |
| O=C(Nc1ccc(CN2CCOCC2)cc1)c1cc(Cl)ccc1Cl | 50.1 µg/mL (≈ 137 µM) |

| SMILES | solubility kinetic |
| --- | --- |
| CCOc1ccccc1/C=C(\C#N)C(=O)NC1CC1 | 31.3 µg/mL (≈ 122 µM) |
| Cc1ccc(NC(=O)c2nc3nccc(C)n3n2)c(C)c1 | > 42.2 µg/mL |
| COc1ccc(S(=O)(=O)N2CCN(c3cnccn3)CC2)cc1 | > 50.2 µg/mL |
| CCCC(=O)Nc1ccc(NCc2ccc(C)s2)cc1 | > 43.3 µg/mL |
| O=C(COc1ccc2c(c1)OCO2)Nc1ccc(Cl)cn1 | 1.3 µg/mL (≈ 4.24 µM) |
| COc1ccc(OCCn2ccnc2)cc1 | 26.4 µg/mL (≈ 121 µM) |
| O=C(Nc1nc2ccccc2[nH]1)c1ccccc1OC(F)F | 8.9 µg/mL (≈ 29.3 µM) |
| COc1ccc(C(=O)O)cc1S(=O)(=O)NC1CCN(Cc2ccccc2)CC1 | 59.1 µg/mL (≈ 146 µM) |
| OCCNCC(O)CN1c2ccccc2Sc2ccccc21 (centres undefined) | > 47.5 µg/mL |
| O=C(CSC1=NS(=O)(=O)c2ccccc2N1)Nc1ccccc1F | > 54.8 µg/mL |
| O=C(OCC(=O)c1ccc[nH]1)c1ccc(Cl)c(Cl)c1 | 6.8 µg/mL (≈ 22.8 µM) |
| Cc1cc(C)c2c(CC(=O)O)c(C)[nH]c2c1 | 28.5 µg/mL (≈ 131 µM) |
| Cn1cc(S(=O)(=O)NC2CCCC2)c(=O)n(C)c1=O | > 43.1 µg/mL |
| O=C1NN=C(c2ccccc2)CC1c1c[nH]c2ccccc12 (centres undefined) | > 43.4 µg/mL |
| O=C(Nc1cc([N+](=O)[O-])ccc1N1CCCC1)c1ccco1 | 40.9 µg/mL (≈ 136 µM) |
| CC(=O)c1ccccc1NC(=O)CC1(CC(=O)O)CCCCC1 | > 47.6 µg/mL |
| Nc1cc(N2CCOCC2)c(Cl)cc1[N+](=O)[O-] | 31.4 µg/mL (≈ 122 µM) |
| C[C@@H](C(=O)Nc1nc2ccccc2s1)N1C(=O)C2CC=CCC2C1=O (some centres undefined) | 45.2 µg/mL (≈ 127 µM) |
| CN(C)/C=N/NC(=O)C1Cc2c(ccc3ccccc23)O1 (centres undefined) | > 42.5 µg/mL |
| O=C(/C=C/c1ccc(Cl)c([N+](=O)[O-])c1)c1ccc(O)cc1 | 3.9 µg/mL (≈ 12.8 µM) |
| N/C(=N\OC(=O)c1cccnc1)c1ccccc1Cl | 38.9 µg/mL (≈ 141 µM) |
| CCCCN(C(C)=O)C1CC(=O)N(c2ccc(OCCC)cc2)C1=O (centres undefined) | > 52 µg/mL |
| COc1ccccc1C(=O)NC(=O)CSc1nnc2ccccn12 | > 51.4 µg/mL |
